# “Also recorded” adds a separate entry of the source. Counter-ions that a name gives are not always drawn. Like-named read-outs stand apart in the source and are kept apart here.
# What was measured:
# [1] = Reduction of food intake in fasted rats, intraperitoneal (IC50 from dose-response curve); format: in vivo, rat; details: ip
# Excerpt: The measured food intake was plotted as a function of the natural logarithm of the drug concentration (ln(Dose)) given to the animal for each of the compounds listed above. A dose response curve of the functional form: Intake =α+(1-α)/[1+exp(β- ln(Dose))]was fit to each of the data sets using the NONLIN feature of the Systat™ statistical analysis software package for the Macintosh™ (Systat, Evanston, Il).
# benzodiazepine receptors = details: Skolnick; Robertson; cited from earlier work
# [2] = human, in vivo; cited from earlier work
# [3] = Partial appetite suppression: food intake over one hour vs dose (FIG. 5); format: in vivo; details: rat
# Procedure: Adult male rats weighing between 250 and 300 g were acclimated to laboratory conditions for a period of 4-5 days, during which they were allowed unrestricted access to food (Ralston-Purina #5001M) and water. All animals were housed in individual cages. The animal facility was maintained on a 12:12 hr light-dark schedule at 22° C.
# Fasted animals were sorted into groups of 10-12 each by weight and baseline food intake. Each was then given saline containing 0-32 mg/Kg of a compound of the invention (or THBC) by intraperitoneal injection. After 20 minutes, animals were allowed access to food and water. Cumulative food intake was measured at 1 hour post-injection.
# Reduction in food intake over one hour was measured against the dose per unit body weight for THBC and compound 14. The results are shown in FIG. 5A, which compares compound 14 with THBC.
# [4] = system: brain tryptamine binding sites; details: cited from earlier work
# [5] = system: brain imipramine binding sites; details: cited from earlier work
# [6] = system: brain 5-hydroxytryptamine (5-HT) binding sites; details: cited from earlier work
# [7] = system: brain spiperone binding sites; details: cited from earlier work
# 5 HT efflux = details: brain slices; cited from earlier work
# 5-HT uptake = details: brain synaptosomes; cited from earlier work
# [8] = system: 5-HT oxidative deamination; details: cited from earlier work
# [9] = cited from earlier work
# [10] = rats; cited from earlier work
# [11] = systemic, rodents; cited from earlier work
# [12] = parenteral, rats; cited from earlier work
# [13] = cited from earlier work; remark: listed apart in the source
# [14] = cited from earlier work; for effect on feeding (hyperphagic / anorectic): S. Cooper
# [15] = rat, intraperitoneal, 1 hour food intake, Table 3, read-out: Log (1/IC50) Measured (converted)
# [16] = Rattus norvegicus, 1 h, read-out: Activity LOG (IC50), reduction of food intake
# [17] = Rattus norvegicus, 1 h, read-out: Log (1/IC50) Measured
# [18] = rat, intraperitoneal, 1 hour food intake, Table 2, read-out: Activity LOG (IC50), reduction of food intake (converted)
molecule,measurement,setting,value
O=C(O)C1Cc2c([nH]c3ccc(O)cc23)CN1 (stereo not shown) [Compound 15],ED50,[1]; [15],91.2 µmol/kg
"COC(=O)C1Cc2c([nH]c3ccccc23)CN1 (stereo not drawn) [3-carbomethoxy-1,2,3,4-tetrahydro-β-carboline]",binding affinity to benzodiazepine receptors,benzodiazepine receptors,very low affinity
"Fc1ccc2c3c([nH]c2c1)CNCC3 [Compound 5, 7-fluoro-1,2,3,4-tetrahydro-β-carboline hydrochloride]",ED50,[1]; [16],0.0214 µmol/kg
same,ED50,[1]; [17],46.8 µmol/kg
CCNC(C)Cc1cccc(C(F)(F)F)c1 (stereo not shown) [fenfluramine],clinical efficacy,[2],inadequate clinical efficacy
same,patient complaints (side effects),[2],drowsiness and headache
"c1ccc(Cn2c3c(c4ccccc42)CCNC3)cc1 [Compound 19, 9 benzyl-1,2,3,4-tetrahydro-β-carboline hydro-chloride]",ED50,[1]; [18],0.0447 µmol/kg
same,ED50,[1]; [15],22.4 µmol/kg
"O=C(O)C1Cc2c([nH]c3ccccc23)CN1 (racemic) [Compound 14, (±) 3-carboxyl-1,2,3,4-tetrahydro-β-carboline]",ED50,[1]; [18],0.0331 µmol/kg
same,ED50,[1]; [15],30.2 µmol/kg
same,feeding depression / dose-response behavior,[3],will not depress feeding behavior over a comparatively large feeding range; also recorded: moderate feeding depression over a broad dosage range
"Clc1ccc2[nH]c3c(c2c1)CCNC3 [Compound 8, 6-chloro-1,2,3,4-tetrahydro-β-carboline hydrochloride]",ED50,[1]; [16],0.0347 µmol/kg
same,ED50,[1]; [17],28.8 µmol/kg
"COc1ccc2[nH]c3c(c2c1)CCNC3 [Compound 2, 6-methoxy-1,2,3,4-tetrahydro-β-carboline]",ED50,[1]; [16],0.0162 µmol/kg
same,ED50,[1]; [17],61.7 µmol/kg
"Fc1ccc2[nH]c3c(c2c1)CCNC3 [Compound 4, 6-fluoro-1,2,3,4 tetrahydro-β-carboline hydrochloride]",ED50,[1]; [16],0.0257 µmol/kg
same,ED50,[1]; [17],38.9 µmol/kg
Cc1ccc2[nH]c3c(c2c1)CCNC3 [Compound 12],ED50,[1]; [15],30.9 µmol/kg
"CCCCCn1c2c(c3cc(C)ccc31)CCNC2 [Compound 21, 6-Methyl-9-(n-pentyl)-1,2,3,4-tetrahydro-β-carboline hydrochloride]",ED50,[1]; [18],0.0589 µmol/kg
same,ED50,[1]; [15],17 µmol/kg
"CC(=O)N1CCc2c([nH]c3ccccc23)C1 [Compound 16, 2-acetyl-1,2,3,4-tetrahydro-β-carboline]",ED50,[1]; [18],0.0162 µmol/kg
same,ED50,[1]; [15],61.7 µmol/kg
same,feeding depression / dose-response behavior,[3],The same behavior was observed
"CCCCCn1c2c(c3ccccc31)CCNC2 [Compound 23, 9-(n-pentyl)-1,2,3,4-tetrahydro-β-carboline hydrochloride]",ED50,[1]; [18],0.055 µmol/kg
same,ED50,[1]; [15],18.2 µmol/kg
"c1ccc2c3c([nH]c2c1)CNCC3 [Compound 1, 1,2,3,4-tetrahydro-β-carboline]",ED50,[1]; [16],0.0145 µmol/kg
same,ED50,[1]; [17],69.2 µmol/kg
same,feeding depression / dose-response behavior,[3],"little feeding depression at low dosage, but relatively complete feeding depression at higher dosage"
same,competition for brain tryptamine binding sites,[4],low affinity
same,competition for brain imipramine binding sites,[5],low affinity
same,competition for brain 5-HT binding sites,[6],low affinity
same,competition for brain spiperone binding sites,[7],low affinity
same,depolarization-induced 5 HT efflux,5 HT efflux,enhances
same,inhibition of 5-HT uptake,5-HT uptake,weakly inhibits
same,inhibition of 5-HT oxidative deamination,[8],weakly inhibits
same,behavioral syndrome at high doses,[9]; high doses,"hyperactivity, forepaw treating, body weaving, and circling"
same,behavioral effects,[9]; parenteral,"suppresses locomotion, exploratory activity, and conflict behavior, impairs performance on operantly conditioned learning and memory tasks, reduces seizure susceptibility, prolongs barbiturate sedation, and antagonizes specific drug induced stereotypic behavior"
same,"behavioral effects, intraventricular",[10],"reduce motor activity, induce apparent anxiety, and increase voluntary ethanol consumption"
same,plasma corticosterone,[11],elevated
same,plasma prolactin levels,[11],dose-dependent elevation
same,serum luteinizing hormone levels,[11],decreased
same,dose eliciting significant hypothermia,[12],≥ 6.25 mg/kg
same,deaths,[13]; 49 mg/Kg/day or greater,6 out of the 24
same,treatment day by which food consumption returns to normal (tolerance),"[13]; daily oral, in excess of 49 mg/Kg",twelfth
same,"appetite, smaller daily doses","[13]; daily oral, less than 30 mg/Kg",do not significantly alter appetite
same,"food intake, daily oral administration","[13]; in excess of 49 mg/Kg daily, after two consecutive days",significant reductions in food intake
"CCn1c2c(c3ccccc31)CCNC2 [Compound 20, 9-ethyl-1,2,3,4-tetrahydro-β-carboline hydrochloride]",ED50,[1]; [18],0.0309 µmol/kg
same,ED50,[1]; [15],32.4 µmol/kg
"Cc1cccc2c3c([nH]c12)CNCC3 [Compound 10, 8-methyl-1,2,3,4-tetrahydro-β-carboline hydrochloride]",ED50,[1]; [18],0.0162 µmol/kg
same,ED50,[1]; [15],61.7 µmol/kg
ethyl -isopropoxy-4-methyl-β-carboline-3-carboxylate,effect on feeding (hyperphagic / anorectic),[14],hyperphagic
CNC(=O)c1cc2c(cn1)[nH]c1ccccc12 [β-carboline-3-carboxylic acid methyl amide],food consumption by partially sated rats,"[14]; 10.0 mg/Kg, intraperitoneal",30 % of control
same,effect on feeding (hyperphagic / anorectic),[14],anorectic
"CC(=O)N1CCc2c(n(Cc3ccccc3)c3ccccc23)C1 [Compound 27, 2 acetyl-9 benzyl-1,2,3,4-tetrahydro-β-carboline]",ED50,[1]; [18],0.0339 µmol/kg
same,ED50,[1]; [15],29.5 µmol/kg
CCOC(=O)c1ncc2[nH]c3cccc(OCc4ccccc4)c3c2c1COC [ethyl-5-benzyloxy-4-methoxymethyl β-carboline-3-carboxylate],effect on feeding (hyperphagic / anorectic),[14],hyperphagic
Cc1cccc2[nH]c3c(c12)CCNC3 [Compound 17],ED50,[1]; [15],30.2 µmol/kg
CCOC(=O)c1ncc2[nH]c3ccc(OCc4ccccc4)cc3c2c1COC [ethyl 6-benzyloxy-4-meth-oxymethyl-β-carboline-3-carboxylate],effect on feeding (hyperphagic / anorectic),[14],hyperphagic
CC1NCCc2c1[nH]c1ccccc21 (stereo not shown) [Compound 7],ED50,[1]; [17],100 µmol/kg
O=Cn1c2c(c3ccccc31)CCNC2 [Compound 18],ED50,[1]; [15],91.2 µmol/kg
CCC1Cc2c([nH]c3ccccc23)CN1 (stereo not shown) [Compound 13],ED50,[1]; [15],77.6 µmol/kg
